Patent publication US9586951B2 (FUJIFILM Corporation, priority 2013, dated 2017)

The molecules below were run against T1, ATM (Homo sapiens, UniProt Q13315) (assay: ATM inhibition test (phosphorylation of Chk2 generated by ionizing radiation, AlphaScreen SureFire)). Conditions: phosphorylated Chk2 in NCI-H460 cells, ionizing radiation 8Gy, 1 hour after test compound treatment; read-out: ATM inhibitory activity.
T1 construct: detecting phosphorylation of Chk2 in a human non-small cell lung cancer cell line NCI-H460 (ATCC company); host or cells: NCI-H460 human non-small cell lung cancer cells
Type: cell-based
Procedure, shortened: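 NCI-H460 cells treated with compound for 1 hour, then irradiated with 8Gy and incubated 1 hour at 37° C. Phospho-Chk2 measured by AlphaScreen SureFire. Inhibition ratio calculated relative to untreated irradiated and non-irradiated wells.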

T1 sequence (Q13315 whole entry): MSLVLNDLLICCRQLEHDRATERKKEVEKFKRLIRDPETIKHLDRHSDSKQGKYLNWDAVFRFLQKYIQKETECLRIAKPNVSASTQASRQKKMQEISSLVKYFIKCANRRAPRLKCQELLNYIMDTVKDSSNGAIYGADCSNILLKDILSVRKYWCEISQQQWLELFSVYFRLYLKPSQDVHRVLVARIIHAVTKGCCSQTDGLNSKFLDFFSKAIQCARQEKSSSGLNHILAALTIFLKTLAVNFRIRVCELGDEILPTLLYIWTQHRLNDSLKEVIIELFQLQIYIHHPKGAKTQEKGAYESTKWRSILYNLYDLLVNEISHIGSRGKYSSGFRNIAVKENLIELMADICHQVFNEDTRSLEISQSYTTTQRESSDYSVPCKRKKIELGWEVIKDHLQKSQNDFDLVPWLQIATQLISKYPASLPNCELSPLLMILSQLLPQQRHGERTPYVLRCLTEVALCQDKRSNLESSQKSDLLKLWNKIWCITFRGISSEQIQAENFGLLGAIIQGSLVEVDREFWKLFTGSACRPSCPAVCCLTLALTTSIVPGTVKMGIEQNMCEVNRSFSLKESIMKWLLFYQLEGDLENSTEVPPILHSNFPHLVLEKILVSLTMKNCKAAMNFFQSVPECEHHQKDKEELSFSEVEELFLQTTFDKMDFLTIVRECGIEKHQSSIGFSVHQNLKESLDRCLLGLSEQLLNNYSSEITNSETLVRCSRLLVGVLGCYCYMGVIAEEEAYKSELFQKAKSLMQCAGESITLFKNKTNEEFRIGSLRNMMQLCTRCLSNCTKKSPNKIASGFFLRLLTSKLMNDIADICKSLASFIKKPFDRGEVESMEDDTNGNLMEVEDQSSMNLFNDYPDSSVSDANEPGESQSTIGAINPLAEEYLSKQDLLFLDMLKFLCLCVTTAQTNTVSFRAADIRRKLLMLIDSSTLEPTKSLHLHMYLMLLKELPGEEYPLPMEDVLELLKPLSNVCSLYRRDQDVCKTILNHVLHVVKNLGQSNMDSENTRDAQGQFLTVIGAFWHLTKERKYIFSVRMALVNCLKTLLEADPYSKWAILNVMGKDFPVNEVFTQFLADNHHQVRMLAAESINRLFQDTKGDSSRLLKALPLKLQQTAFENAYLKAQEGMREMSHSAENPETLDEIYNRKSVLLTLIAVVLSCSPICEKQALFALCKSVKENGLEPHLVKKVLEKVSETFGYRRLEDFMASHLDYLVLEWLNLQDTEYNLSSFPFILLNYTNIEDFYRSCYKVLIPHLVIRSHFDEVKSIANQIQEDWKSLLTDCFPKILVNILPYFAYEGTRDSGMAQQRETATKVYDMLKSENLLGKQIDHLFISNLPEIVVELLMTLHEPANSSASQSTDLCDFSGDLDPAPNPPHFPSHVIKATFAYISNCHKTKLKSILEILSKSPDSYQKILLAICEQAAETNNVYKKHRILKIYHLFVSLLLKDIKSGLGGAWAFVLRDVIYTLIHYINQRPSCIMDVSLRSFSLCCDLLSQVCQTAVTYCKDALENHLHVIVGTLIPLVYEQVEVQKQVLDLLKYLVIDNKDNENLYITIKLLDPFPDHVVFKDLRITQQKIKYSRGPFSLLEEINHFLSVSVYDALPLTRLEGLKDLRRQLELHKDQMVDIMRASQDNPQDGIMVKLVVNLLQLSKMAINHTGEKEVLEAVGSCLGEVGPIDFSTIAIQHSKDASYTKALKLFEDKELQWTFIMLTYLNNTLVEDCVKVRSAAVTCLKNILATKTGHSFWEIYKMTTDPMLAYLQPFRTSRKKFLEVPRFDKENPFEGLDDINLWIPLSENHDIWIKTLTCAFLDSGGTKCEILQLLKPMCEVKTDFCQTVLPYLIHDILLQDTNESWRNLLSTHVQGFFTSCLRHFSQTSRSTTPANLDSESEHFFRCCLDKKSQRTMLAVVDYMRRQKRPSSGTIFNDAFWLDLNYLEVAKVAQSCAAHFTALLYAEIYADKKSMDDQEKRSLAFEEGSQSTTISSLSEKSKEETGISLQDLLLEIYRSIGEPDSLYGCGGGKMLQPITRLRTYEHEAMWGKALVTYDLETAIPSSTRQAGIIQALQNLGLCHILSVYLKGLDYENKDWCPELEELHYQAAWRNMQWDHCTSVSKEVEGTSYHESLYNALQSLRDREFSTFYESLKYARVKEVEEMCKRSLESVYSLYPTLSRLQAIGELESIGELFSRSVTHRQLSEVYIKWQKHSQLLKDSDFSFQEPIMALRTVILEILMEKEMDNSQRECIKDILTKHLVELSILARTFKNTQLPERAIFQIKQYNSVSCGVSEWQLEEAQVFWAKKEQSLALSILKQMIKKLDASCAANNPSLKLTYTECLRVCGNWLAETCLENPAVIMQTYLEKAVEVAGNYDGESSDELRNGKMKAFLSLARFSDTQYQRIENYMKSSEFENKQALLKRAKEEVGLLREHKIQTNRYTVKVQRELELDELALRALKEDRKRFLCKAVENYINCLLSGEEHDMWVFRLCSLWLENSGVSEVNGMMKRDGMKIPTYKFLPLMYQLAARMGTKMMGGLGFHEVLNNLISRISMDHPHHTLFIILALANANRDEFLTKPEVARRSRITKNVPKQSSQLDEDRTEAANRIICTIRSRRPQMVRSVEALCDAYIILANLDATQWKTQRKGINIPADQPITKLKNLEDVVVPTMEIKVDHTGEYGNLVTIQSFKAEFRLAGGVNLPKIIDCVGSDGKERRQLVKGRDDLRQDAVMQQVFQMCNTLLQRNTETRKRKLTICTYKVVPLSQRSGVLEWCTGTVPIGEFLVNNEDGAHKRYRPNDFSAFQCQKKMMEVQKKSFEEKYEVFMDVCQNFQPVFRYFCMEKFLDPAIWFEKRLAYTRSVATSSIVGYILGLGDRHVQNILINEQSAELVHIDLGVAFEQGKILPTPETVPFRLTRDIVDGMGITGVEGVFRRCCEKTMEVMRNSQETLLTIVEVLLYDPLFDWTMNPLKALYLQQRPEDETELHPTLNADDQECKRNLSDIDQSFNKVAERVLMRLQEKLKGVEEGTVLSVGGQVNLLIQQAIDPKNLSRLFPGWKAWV

Structure (SMILES) | IC50 [µM]
O=c1cc(N2CCOCC2)cc(-c2cccc3c2Oc2ccc(NC4CCOC4)cc2C3)[nH]1 (centres unmarked) [Example 2-16, 4-Morpholino-6-(7-((tetrahydrofuran-3-yl)amino)-9H-xanthen-4-yl)pyridin-2(1H)-one] | 0.5 to 2
Cc1cccc(CN(CC(=O)O)c2ccc3c(c2)Cc2cccc(-c4cc(N5CCOCC5)cc(=O)[nH]4)c2O3)n1 [Example 2-17, 2-(((6-methylpyridin-2-yl)methyl)(5-(4-morpholino-6-oxo-1,6-dihydropyridin-2-yl)-9H-xanthen-2-yl)amino)acetic acid] | 0.5 to 2
CC1CC(Nc2ccc3c(c2)Cc2cccc(-c4cc(N5CCOCC5)cc(=O)[nH]4)c2O3)CCN1CCc1ccccc1 (centres unmarked) [Example 2-19-1, 6-(7-((2-Methyl-1-phenethylpiperidin-4-yl)amino)-9H-xanthen-4-yl)-4-morpholinopyridin-2(1H)-one] | 0.1 to 0.5
O=c1cc(N2CCOCC2)cc(-c2cccc3c2Oc2ccc(NC4CCCN(CCc5ccccc5)C4)cc2C3)[nH]1 (centres unmarked) [Example 2-19-3, 4-Morpholino-6-(7-((1-phenethylpiperidin-3-yl)amino)-9H-xanthen-4-yl)pyridin-2(1H)-one] | 0.5 to 2
O=c1cc(N2CCOCC2)cc(-c2cccc3c2Oc2ccc(NC4CN(CCc5ccccc5)C4)cc2C3)[nH]1 [Example 2-19-6, 4-Morpholino-6-(7-((1-phenethylazetidin-3-yl)amino)-9H-xanthen-4-yl)pyridin-2(1H)-one] | 0.1 to 0.5
O=C(Nc1ccc2c(c1)Cc1cccc(-c3cc(N4CCOCC4)cc(=O)[nH]3)c1O2)c1cc(Br)ccn1 [Example 2-24, 4-bromo-N-(5-(4-morpholino-6-oxo-1,6-dihydropyridin-2-yl)-9H-xanthen-2-yl)picolinamide] | 0.5 to 2
CC(C)(C)OC(=O)N1CCC(C#N)(Nc2ccc3c(c2)Cc2cccc(-c4cc(N5CCOCC5)cc(=O)[nH]4)c2O3)CC1 [Example 2-26, tert-butyl 4-cyano-4-((5-(4-morpholino-6-oxo-1,6-dihydropyridin-2-yl)-9H-xanthen-2-yl)amino)piperidine-1-carboxylate] | 0.5 to 2
O=c1cc(N2CCOCC2)cc(-c2cccc3c2Oc2ccc(NC4CCN(Cc5cncnc5)CC4)cc2C3)[nH]1 [Example 2-28-4, 4-Morpholino-6-(7-((1-(pyrimidin-5-ylmethyl)piperidin-4-yl)amino)-9H-xanthen-4-yl)pyridin-2 (1H)-one] | 0.1 to 0.5
COc1ccc(CN2CCC(Nc3ccc4c(c3)Cc3cccc(-c5cc(N6CCOCC6)cc(=O)[nH]5)c3O4)CC2)cn1 [Example 2-28-6, 6-(7-((1-((6-Methoxypyridin-3-yl)methyl)piperidin-4-yl)amino)-9H-xanthen-4-yl)-4-morpholino pyridin-2(1H)-one] | 0.1 to 0.5
O=c1cc(N2CCOCC2)cc(-c2cccc3c2Oc2ccc(NC4CCN(Cc5cnccn5)CC4)cc2C3)[nH]1 [Example 2-28-7, 4-Morpholino-6-(7-((1-(pyrazin-2-ylmethyl)piperidin-4-yl)amino)-9H-xanthen-4-yl)pyridin-2 (1H)-one] | 0.5 to 2
CNc1ccc(CN2CCC(Nc3ccc4c(c3)Cc3cccc(-c5cc(N6CCOCC6)cc(=O)[nH]5)c3O4)CC2)cn1 [Example 2-28-8, 6-(7-((1-((6-(Methylamino)pyridin-3-yl)methyl)piperidin-4-yl)amino)-9H-xanthen-4-yl)-4-morpholino pyridin-2(1H)-one] | 0.1 to 0.5
CN(C)c1ccc(CN2CCC(Nc3ccc4c(c3)Cc3cccc(-c5cc(N6CCOCC6)cc(=O)[nH]5)c3O4)CC2)cn1 [Example 2-28-9, 6-(7-((1-((6-(Dimethylamino)pyridin-3-yl)methyl)piperidin-4-yl)amino)-9H-xanthen-4-yl)-4-morpholino pyridin-2(1H)-one] | 0.1 to 0.5
COc1ccncc1CN1CCC(Nc2ccc3c(c2)Cc2cccc(-c4cc(N5CCOCC5)cc(=O)[nH]4)c2O3)CC1 [Example 2-28-11, 6-(7-((1-((4-Methoxypyridin-3-yl)methyl)piperidin-4-yl)amino)-9H-xanthen-4-yl)-4-morpholino pyridin-2(1H)-one] | 0.1 to 0.5

Now from value to molecule:

IC50 [µM] | Structure (SMILES)
0.1 to 0.5 | Cc1cccc(C(CN)Nc2ccc3c(c2)Cc2cccc(-c4cc(N5CCOCC5)cc(=O)[nH]4)c2O3)n1 (centres unmarked) [Example 2-18, 6-(7-((2-Amino-1-(6-methylpyridin-2-yl)ethyl)amino)-9H-xanthen-4-yl)-4-morpholinopyridin-2(1H)-one]
0.5 to 2 | CCCCN1CCC(Nc2ccc3c(c2)Cc2cccc(-c4cc(N5CCOCC5)cc(=O)[nH]4)c2O3)CC1C (centres unmarked) [Example 2-19-2, 6-(7-((1-Butyl-2-methylpiperidin-4-yl)amino)-9H-xanthen-4-yl)-4-morpholinopyridin-2(1H)-one]
0.1 to 0.5 | CCCCN1CCCC(Nc2ccc3c(c2)Cc2cccc(-c4cc(N5CCOCC5)cc(=O)[nH]4)c2O3)C1 (centres unmarked) [Example 2-19-4, 6-(7-((1-Butylpiperidin-3-yl)amino)-9H-xanthen-4-yl)-4-morpholinopyridin-2(1H)-one]
0.1 to 0.5 | O=c1cc(N2CCOCC2)cc(-c2cccc3c2Oc2ccc(NC4CCCN(CCc5ccccc5)CC4)cc2C3)[nH]1 (centres unmarked) [Example 2-19-5, 4-Morpholino-6-(7-((1-phenethylazepan-4-yl)amino)-9H-xanthen-4-yl)pyridin-2(1H)-one]
0.1 to 0.5 | O=c1cc(N2CCOCC2)cc(-c2cccc3c2Oc2ccc(NC4CCN(CCc5ccccc5)C4)cc2C3)[nH]1 (centres unmarked) [Example 2-19-7, 4-Morpholino-6-(7-((1-phenethylpyrrolidin-3-yl)amino)-9H-xanthen-4-yl)pyridin-2(1H)-one]
0.1 to 0.5 | CCCCN1CCC(Nc2ccc3c(c2)Cc2cccc(-c4cc(N5CCOCC5)cc(=O)[nH]4)c2O3)C1 (centres unmarked) [Example 2-19-8, 6-(7-((1-Butylpyrrolidin-3-yl)amino)-9H-xanthen-4-yl)-4-morpholinopyridin-2(1H)-one]
0.5 to 2 | CC(C)(C)OC(=O)N1CCC[C@H]1C(=O)Nc1ccc2c(c1)Cc1cccc(-c3cc(N4CCOCC4)cc(=O)[nH]3)c1O2 [Example 2-20-2, (S)-tert-butyl 2-((5-(4-morpholino-6-oxo-1,6-dihydropyridin-2-yl)-9H-xanthen-2-yl)carbamoyl)pyrrolidine-1-carboxylate]
0.5 to 2 | CC(C)(C)OC(=O)N1CCC[C@H]1CNc1ccc2c(c1)Cc1cccc(-c3cc(N4CCOCC4)cc(=O)[nH]3)c1O2 [Example 2-21-3, (S)-tert-Butyl 2-(((5-(4-morpholino-6-oxo-1,6-dihydropyridin-2-yl)-9H-xanthen-2-yl)amino)methyl) pyrrolidine-1-carboxylate]
0.1 to 0.5 | CNc1cncc(CNc2ccc3c(c2)Cc2cccc(-c4cc(N5CCOCC5)cc(=O)[nH]4)c2O3)c1 [Example 2-21-4, 6-(7-(((5-(Methylamino)pyridin-3-yl)methyl)amino)-9H-xanthen-4-yl)-4-morpholino pyridin-2(1H)-one]
0.5 to 2 | O=c1cc(N2CCOCC2)cc(-c2cccc3c2Oc2ccc(NCC4CCN(c5ccncc5)CC4)cc2C3)[nH]1 [Example 2-21-5]
0.5 to 2 | CN(C)Cc1cc(CNc2ccc3c(c2)Cc2cccc(-c4cc(N5CCOCC5)cc(=O)[nH]4)c2O3)ccn1 [Example 2-21-8, 6-(7-(((2-((Dimethylamino)methyl)pyridin-4-yl)methyl)amino)-9H-xanthen-4-yl)-4-morpholino pyridin-2(1H)-one]
0.1 to 0.5 | COc1cc(CNc2ccc3c(c2)Cc2cccc(-c4cc(N5CCOCC5)cc(=O)[nH]4)c2O3)ccn1 [Example 2-22-1, 6-(7-(((2-methoxypyridin-4-yl)methyl)amino)-9H-xanthen-4-yl)-4-morpholinopyridin-2(1H)-one]
0.1 to 0.5 | CN1CCN(c2cc(CNc3ccc4c(c3)Cc3cccc(-c5cc(N6CCOCC6)cc(=O)[nH]5)c3O4)ccn2)CC1 [Example 2-22-2, 6-(7-(((2-(4-methylpiperazin-1-yl)pyridin-4-yl)methyl)amino)-9H-xanthen-4-yl)-4-morpholinopyridin-2(1H)-one]
0.5 to 2 | O=c1cc(N2CCOCC2)cc(-c2cccc3c2Oc2ccc(NCCN4CCOCC4)cc2C3)[nH]1 [Example 2-23-2, 4-Morpholino-6-(7-((2-morpholinoethyl)amino)-9H-xanthen-4-yl)pyridin-2(1H)-one]
0.5 to 2 | O=c1cc(N2CCOCC2)cc(-c2cccc3c2Oc2ccc(NC4CCN(Cc5ccccn5)CC4)cc2C3)[nH]1 [Example 2-28-1, 4-Morpholino-6-(7-((1-(pyridin-2-ylmethyl)piperidin-4-yl)amino)-9H-xanthen-4-yl)pyridin-2 (1H)-one]
0.5 to 2 | COc1cncc(CN2CCC(Nc3ccc4c(c3)Cc3cccc(-c5cc(N6CCOCC6)cc(=O)[nH]5)c3O4)CC2)c1 [Example 2-28-2, 6-(7-((1-((5-Methoxypyridin-3-yl)methyl)piperidin-4-yl)amino)-9H-xanthen-4-yl)-4-morpholino pyridin-2(1H)-one]
0.5 to 2 | O=c1cc(N2CCOCC2)cc(-c2cccc3c2Oc2ccc(NC4CCN(Cc5ncccn5)CC4)cc2C3)[nH]1 [Example 2-28-3, 4-Morpholino-6-(7-((1-(pyrimidin-2-ylmethyl)piperidin-4-yl)amino)-9H-xanthen-4-yl)pyridin-2 (1H)-one]
0.1 to 0.5 | Cc1ccc(CN2CCC(Nc3ccc4c(c3)Cc3cccc(-c5cc(N6CCOCC6)cc(=O)[nH]5)c3O4)CC2)cn1 [Example 2-28-10, 6-(7-((1-((6-Methylpyridin-3-yl)methyl)piperidin-4-yl)amino)-9H-xanthen-4-yl)-4-morpholino pyridin-2(1H)-one]
0.5 to 2 | CNc1ncc(CN2CCC(Nc3ccc4c(c3)Cc3cccc(-c5cc(N6CCOCC6)cc(=O)[nH]5)c3O4)CC2)cn1 [Example 2-28-12, 6-(7-((1-((2-(Methylamino)pyrimidin-5-yl)methyl)piperidin-4-yl)amino)-9H-xanthen-4-yl)-4-morpholino pyridin-2 (1H)-one]
